“Also recorded” adds a separate entry of the source.
Assays:
[1] = tested on: A/New Jersey/15/2007 (H1N1); format: biochemical, human influenza virus
A/Fukui/20/2004 (H3N2) = format: biochemical, human influenza virus

CC(=O)N[C@H]1[C@H]([C@H](O)[C@H](O)CO)OC(C(=O)O)=C[C@@H]1N=C(N)N [zanamivir, 4-guanidino-Neu5Ac2en]
susceptibility to NAI (in words) [1]: zanamivir-sensitive; also recorded: susceptible | susceptibility to NAI (in words) (A/Fukui/20/2004 (H3N2)): susceptible

Reference: paper PMC3299860 (Antiviral Research, 2012)
